Target: T1, wild-type human ALK (cytoplasmic domain, amino acids 1058-1620, N-terminal GST fusion) (Homo sapiens, UniProt Q9UM73)
T1 construct: The cytoplasmic domain (amino acids 1058-1620) of wild-type human ALK; GST (N); made in house; host or cells: SF9 insect cells
Test: ALK Inhibition in Enzyme Assay (Lance TR-FRET kinase assay)
Assay type: biochemical
Summary of the method: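 TR-FRET read-out (Eu-W1024 PT66 anti-phosphotyrosine plus streptavidin-allophycocyanin, 320 nm excitation) quantified biotinylated peptide phosphorylation by the purified kinase. Reaction ran 90 minutes at room temperature before quenching with 20 mM EDTA in Tris pH 7.5 buffer with NaCl, BSA and Tween-20.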

T1 sequence (Q9UM73 1058-1620): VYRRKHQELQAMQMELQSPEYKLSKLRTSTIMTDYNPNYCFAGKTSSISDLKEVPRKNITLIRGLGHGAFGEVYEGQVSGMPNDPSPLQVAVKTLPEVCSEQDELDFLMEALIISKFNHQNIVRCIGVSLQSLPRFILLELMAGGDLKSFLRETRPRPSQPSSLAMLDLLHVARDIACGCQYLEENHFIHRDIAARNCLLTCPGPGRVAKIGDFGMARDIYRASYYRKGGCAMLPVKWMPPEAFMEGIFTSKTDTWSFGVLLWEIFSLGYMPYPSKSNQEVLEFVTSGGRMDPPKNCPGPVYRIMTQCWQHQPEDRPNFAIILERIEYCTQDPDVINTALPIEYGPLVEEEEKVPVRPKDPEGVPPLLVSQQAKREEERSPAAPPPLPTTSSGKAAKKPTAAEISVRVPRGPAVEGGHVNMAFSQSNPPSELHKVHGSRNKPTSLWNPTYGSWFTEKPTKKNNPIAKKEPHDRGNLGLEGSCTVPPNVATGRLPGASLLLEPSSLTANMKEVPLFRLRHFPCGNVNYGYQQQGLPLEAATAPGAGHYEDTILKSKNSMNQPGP

Row | IC50 | Structure (SMILES)
1 | 50 to 100 nM | NC(=O)[C@]1(c2cccc(Br)c2)C[C@@H](n2/c(=N/C(=O)c3ccc(F)cc3)[nH]c3cnc(OCCN4CCCCC4)cc32)C1 [Example 251, (E)-N-(1-(trans-3-(3-Bromophenyl)-3-carbamoylcyclobutyl)-6-(2-(piperidin-1-yl)ethoxy)-1H-imidazo[4,5-c]pyridin-2(3H)-ylidene)-4-fluorobenzamide]
2 | 1000 to 5000 nM | NC(=O)[C@]1(c2cccc(Br)c2)C[C@H](n2/c(=N/C(=O)c3ccc(F)cc3)[nH]c3cnc(OCCN4CCCCC4)cc32)C1 [Example 252, (E)-N-(1-(cis-3-(3-Bromophenyl)-3-carbamoylcyclobutyl)-6-(2-(piperidin-1-yl)ethoxy)-1H-imidazo[4,5-c]pyridin-2(3H)-ylidene)-4-fluorobenzamide]

— US9115127B2 (AMGEN INC., priority 2010, dated 2015)
